In patent US20160355530A1, “HEPATITIS C INHIBITORS AND USES THEREOF” (AbbVie Inc., priority 2010, published 2016):
Read-outs that look alike come from different tables or passages of the source.

How the values were obtained:
[1] = target: T1, HCV NS5B polymerase 1a-H77 (Hepatitis C virus genotype 1a, UniProt P27958); assay: biochemical; parameters: species or system HCV genotype 1a; details: enzyme, strain 1a H77; read-out: HCV Polymerase Strain 1a H77 IC50
T1 construct: six-histidine tag; made in house; host or cells: E. coli
T1 sequence (P27958 2421-2990): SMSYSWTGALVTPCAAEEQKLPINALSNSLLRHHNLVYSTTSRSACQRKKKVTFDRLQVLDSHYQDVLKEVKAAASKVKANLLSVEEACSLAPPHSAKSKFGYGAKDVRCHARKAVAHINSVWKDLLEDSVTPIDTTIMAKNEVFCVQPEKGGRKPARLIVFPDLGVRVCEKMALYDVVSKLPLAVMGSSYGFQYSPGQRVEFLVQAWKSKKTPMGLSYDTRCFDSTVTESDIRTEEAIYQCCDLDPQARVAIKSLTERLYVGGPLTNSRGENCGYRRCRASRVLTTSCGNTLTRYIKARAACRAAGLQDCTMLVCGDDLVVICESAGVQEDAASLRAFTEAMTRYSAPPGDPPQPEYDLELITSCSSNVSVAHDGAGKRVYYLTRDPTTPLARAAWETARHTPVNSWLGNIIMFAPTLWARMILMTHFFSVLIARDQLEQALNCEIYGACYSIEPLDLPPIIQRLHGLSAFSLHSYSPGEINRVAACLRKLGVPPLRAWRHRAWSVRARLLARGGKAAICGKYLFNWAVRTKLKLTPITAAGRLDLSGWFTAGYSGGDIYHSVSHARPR
Procedure, shortened: (§1)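 Incorporation of [3H]UTP (0.284 μM), alongside 20 μM each CTP and ATP, into RNA copied from a 5 nM 2.1 kb genotype 1b negative-strand template was measured after 3 h at 30° C using purified His-tagged NS5B truncated at residue 570. Product was spermine-precipitated, filtered and scintillation-counted; nonlinear regression gave IC50.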

[2] = target: T2, HCV NS5B polymerase 1a-H77-C316Y (Hepatitis C virus genotype 1a, UniProt P27958, C2736Y); assay: biochemical; parameters: species or system HCV genotype 1a
T2 construct: six-histidine tag; made in house; host or cells: E. coli
T2 sequence (P27958 2421-2990 C2736Y): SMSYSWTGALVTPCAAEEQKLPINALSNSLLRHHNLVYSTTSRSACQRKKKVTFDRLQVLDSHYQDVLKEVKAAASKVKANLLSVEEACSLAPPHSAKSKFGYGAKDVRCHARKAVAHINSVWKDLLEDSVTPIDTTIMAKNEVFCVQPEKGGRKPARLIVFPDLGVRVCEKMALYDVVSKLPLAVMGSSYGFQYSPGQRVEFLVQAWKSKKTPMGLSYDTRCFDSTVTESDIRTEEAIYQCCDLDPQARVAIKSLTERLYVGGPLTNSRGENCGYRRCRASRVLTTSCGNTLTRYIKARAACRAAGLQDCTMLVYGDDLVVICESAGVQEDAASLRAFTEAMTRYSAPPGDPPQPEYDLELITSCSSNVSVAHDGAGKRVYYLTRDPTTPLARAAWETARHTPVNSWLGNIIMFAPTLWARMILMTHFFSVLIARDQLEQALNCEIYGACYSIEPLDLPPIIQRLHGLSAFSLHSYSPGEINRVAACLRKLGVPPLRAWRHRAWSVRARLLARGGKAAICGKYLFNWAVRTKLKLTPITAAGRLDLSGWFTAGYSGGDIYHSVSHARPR
Procedure, shortened: as §1

[3] = tested on: HCV NS5B polymerase 1a-H77-C316Y; assay: biochemical; parameters: species or system HCV genotype 1a; details: ratio of enzyme IC50s, 1a H77-C316Y / 1a H77
Procedure, shortened: as §1

[4] = tested on: HCV 1b-BB7 subgenomic replicon; assay: microbe, parasite or virus in culture; format: cell-based, HCV genotype 1b; details: Hepatitis C virus, stable replicon
[5] = tested on: HCV 1a-H77 subgenomic replicon; assay: microbe, parasite or virus in culture; format: cell-based, HCV genotype 1a; details: Hepatitis C virus, stable replicon
[6] = target: T3, HCV NS5B polymerase 1b BK strain (Hepatitis C virus genotype 1b, UniProt P26663); assay: HCV NS5B polymerase enzymatic inhibition assay, strain 1b BK; format: biochemical; details: enzyme, strain 1b BK; read-out: HCV Polymerase Strain 1b BK IC50
T3 construct: six-histidine tag; made in house; host or cells: E. coli
T3 sequence (P26663 2420-2989): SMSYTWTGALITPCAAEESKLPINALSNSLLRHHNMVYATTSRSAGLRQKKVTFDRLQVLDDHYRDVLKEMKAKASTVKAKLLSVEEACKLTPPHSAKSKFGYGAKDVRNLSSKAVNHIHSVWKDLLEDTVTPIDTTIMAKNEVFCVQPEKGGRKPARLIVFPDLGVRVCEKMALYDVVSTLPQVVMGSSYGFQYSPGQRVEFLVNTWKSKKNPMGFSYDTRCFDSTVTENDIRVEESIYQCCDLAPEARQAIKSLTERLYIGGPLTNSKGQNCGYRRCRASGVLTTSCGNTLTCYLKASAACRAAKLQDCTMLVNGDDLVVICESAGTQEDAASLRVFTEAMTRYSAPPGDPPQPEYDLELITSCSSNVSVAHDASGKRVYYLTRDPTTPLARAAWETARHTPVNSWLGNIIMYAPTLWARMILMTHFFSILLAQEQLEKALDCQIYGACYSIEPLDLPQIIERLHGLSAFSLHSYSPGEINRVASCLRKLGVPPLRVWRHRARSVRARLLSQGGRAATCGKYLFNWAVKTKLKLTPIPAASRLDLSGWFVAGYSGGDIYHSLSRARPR
Procedure, shortened: as §1

[7] = strain 1b BB7, 5% FBS + 40% human plasma, read-out: 1b BB7 5% FBS + 40% Human Plasma EC50
[8] = strain 1b BB7, 5% FBS, no human plasma, read-out: 1b BB7 5% FBS EC50
[9] = strain 1b BB7, 5% FBS, read-out: 1b BB7 5% FBS EC50
[10] = 5% FBS, absence of human plasma, read-out: Stable Replicon 1a H77 5% FBS EC50
[11] = strain 1a H77, 5% FBS + 40% human plasma, read-out: 1a H77 5% FBS + 40% Human Plasma EC50
[12] = strain 1a H77, 5% FBS, no human plasma, read-out: 1a H77 5% FBS EC50
[13] = strain 1a H77, 5% FBS, read-out: 1a H77 5% FBS EC50

Structure (SMILES) | IC50 [1] | IC50 [2] | C316Y/1a Fold Resistance [3] | EC50 [4, 7] | EC50 [4, 8] | EC50 [4, 9] | EC50 [5, 10] | EC50 [5, 11] | EC50 [5, 12] | EC50 [5, 13] | IC50 [6]
CS(=O)(=O)N(CCCc1ccccc1)c1cc2oc(-c3ccc(F)cc3)c(-c3ncc[nH]3)c2cc1C1CC1 [Example 41, N-[5-cyclopropyl-2-(4-fluorophenyl)-3-(1H-imidazol-2-yl)-1-benzofuran-6-yl]-N-(3-phenylpropyl)methanesulfonamide] | 5 nM | 58 nM | 12 fold | 364 nM | 40 nM | 40 nM | 73 nM | 911 nM | 73 nM | 73 nM | 16 nM
CCOC(=O)CN(c1cc2oc(-c3ccc(F)cc3)c(-c3ncc[nH]3)c2cc1C1CC1)S(C)(=O)=O [Example 33, ethyl N-[5-cyclopropyl-2-(4-fluorophenyl)-3-(1H-imidazol-2-yl)-1-benzofuran-6-yl]-N-(methylsulfonyl)glycinate] | 10.5 nM | 1900 nM | 181 fold | 4810 nM | 200 nM | 200 nM | 163 nM | 8840 nM | 163 nM | 163 nM | 152 nM
COC(=O)CCCN(c1cc2oc(-c3ccc(F)cc3)c(-c3ncc[nH]3)c2cc1C1CC1)S(C)(=O)=O [Example 68, methyl 4-{[5-cyclopropyl-2-(4-fluorophenyl)-3-(1H-imidazol-2-yl)-1-benzofuran-6-yl](methylsulfonyl)amino}butanoate] | 5.9 nM | 103 nM | 17 fold | 496 nM | 62 nM | 62 nM | 57 nM | 1210 nM | 57 nM | 57 nM | 20 nM
CC(C)=CCCN(c1cc2oc(-c3ccc(F)cc3)c(-c3ncc[nH]3)c2cc1C1CC1)S(C)(=O)=O [Example 76, N-[5-cyclopropyl-2-(4-fluorophenyl)-3-(1H-imidazol-2-yl)-1-benzofuran-6-yl]-N-(4-methylpent-3-en-1-yl)methanesulfonamide] | 5.9 nM | 131 nM | 22 fold | 661 nM | 26.9 nM | 26.9 nM | 48.5 nM | 3960 nM | 48.5 nM | 48.5 nM | 23 nM
CS(=O)(=O)N(Cc1cccc(C(F)(F)F)c1)c1ccc2c(-c3ncc[nH]3)c(-c3ccccc3)oc2c1 [Example 32, N-[3-(1H-imidazol-2-yl)-2-phenyl-1-benzofuran-6-yl]-N-[3-(trifluoromethyl)benzyl]methanesulfonamide] | 132 nM | 147 nM | 1 fold | 79600 nM | 599 nM | 599 nM | 2370 nM | – | 2370 nM | 2370 nM | 80.1 nM
CS(=O)(=O)N(CC(N)=O)c1cc2oc(-c3ccc(F)cc3)c(-c3ncc[nH]3)c2cc1C1CC1 [Example 36, N^2-[5-cyclopropyl-2-(4-fluorophenyl)-3-(1H-imidazol-2-yl)-1-benzofuran-6-yl]-N^2-(methylsulfonyl)glycinamide] | 7.9 nM | 3400 nM | 428 fold | 1120 nM | 180 nM | 180 nM | 301 nM | 2140 nM | 301 nM | 301 nM | 188 nM
CS(=O)(=O)N(CCC1CCCCC1)c1cc2oc(-c3ccc(F)cc3)c(-c3ncc[nH]3)c2cc1C1CC1 [Example 72, N-(2-cyclohexylethyl)-N-[5-cyclopropyl-2-(4-fluorophenyl)-3-(1H-imidazol-2-yl)-1-benzofuran-6-yl]methanesulfonamide] | 14.3 nM | 164 nM | 11 fold | 2210 nM | 61 nM | 61 nM | 73.7 nM | 3390 nM | 73.7 nM | 73.7 nM | 46 nM
